From patent US6369101B1, “Therapeutic method to treat herpes virus infection” (Regents of the University of Minnesota, priority 1999, dated 2002)
In brackets after ≈: the same amount, converted by molar mass. Entries after “also recorded” stand apart in the source; their conditions may differ.

What was measured:
HSV-2 strain MS = test: CPE inhibition assay, HSV-2 MS in human foreskin fibroblast cells; type: cell-based, herpes simplex virus type 2; as to Qualitative CPE at 2.0 ml dose HSV-2 MS: key: +++ = Complete cytopathic effect; ++ = Moderate cytopathic effect; + = Minimum cytopathic effect; − = No cytopathic effect
Experimental: (§1) Stock solutions of the compounds used for the testing of antiviral activity against HSV-1 and HSV-2 were prepared in distilled water, filtered through 0.2 μm filter (Acrodisco®, Gelman Sciences, USA) and stored at room temperature until used.
(§2) Human laryngeal epithelial carcinoma cells (HEp-2, ATCC, Rockville, Md.) were used for testing of antiviral compounds by cytopathic effect (CPE) inhibition and plaque reduction assay. Primary human foreskin fibroblast cells (HFF) obtained from Dr. E. R. Kern (Department of Pediatrics, University of Alabama Medical School, 309 Bevill Biomedical Research Building, 845 19th Street South, Birmingham, Ala., 35294-2170), were used for cytopathic effect (CPE) inhibition assay. HEp-2, African green monkey kidney cells (Vero, ATCC), HFF and primary rabbit kidney cells were used to determine the cytotoxic effect of compounds of formula I. These cells were propagated in Dulbeco's modified Eagle's medium (DMEM) (Sigma, USA) supplemented with 10% inactivated fetal calf serum (FCS), 25 mM HEPES, 0.2% sodium bicarbonate and 1% penicillin/-streptomycin at 37° C. in the presence of 5% CO2.
(§3) The antiviral activity of the test compounds was determined against HSV-1 strain F, HSV-2 strain G (ATCC), HSV-1 strain E-377 and HSV-2 strain MS (Dr. E. R. Kern, see above), CMV strain AD 169 (NIH), HCMV (NIH), MCMV (NIH), and VZV strain Ellen (NIH). Highly infective virus stocks of HSV-1 and HSV-2 were prepared by infecting a confluent monolayer of HEp-2 (ATCC) or HFF in 150 cm^2 plastic tissue culture flasks (Falcon, USA) at a multiplicity of infection of 0.5 in DMEM supplemented with 10% inactivated fetal calf serum and 1% penicillin/streptomycin at 37° C. in the presence of 5% CO2. The infected cells were disrupted through three freeze/thaw cycles, and viruses were clarified from large cell debris by low speed centrifugation at 3000 rpm for 10 minutes. The virus suspension was separated, aliquoted and stored at −80° C. until assayed or used for animal infection. The stock HSV-1 (E377) and HSV-2 (MS strain) contained 3.5×10^8 and 1.1×10^7 pfu/ml respectively.
(§4) Low passage HFF cells were seeded into 96-well tissue culture plates 24 hours prior to use at a cell concentration of 2.5×10^4 cells per ml in 0.2 ml of DMEM supplemented with 10% fetal calf serum. After 24 hours of incubation at 37° C. in the presence of 5% CO2, medium was removed and the test compounds were diluted two-fold in DMEM in the 96-well tissue culture plate containing monolayer. […] For both HSV-1 and HSV-2 assays, the virus concentration utilized was 1000 pfu/ml and for HCMV, MCMV, and VZV assay 2500 pfu/ml were used. The plates were then incubated at 37° C. in the presence of 5% CO2 for two to three days for HSV-1 and HSV-2, 10 days for VZV and 14 days for HCMV and MCMV. The virus induced cytopathic effect (CPE) was monitored microscopically every day. CPE of HSV-1 was recognized by cell rounding and clumping, while HSV-2 formed large syncytia along with rounding and clumping of cells. […] EC50s were estimated from graphical plots of percent CPE against the concentration of the test compounds. The EC50s for each compound are the mean of EC50s for three or more independent experiments. After three days of incubation period, media was aspirated and the cells stained with a 0.1% crystal violet solution for 30 minutes. The stain was then removed and the plates were rinsed with tap water, air dried and retained.

HSV-2 strain G = test: CPE inhibition, HSV-2 strain G in HEp-2 cells; also: key: +++ = Complete cytopathic effect; ++ = Moderate cytopathic effect; + = Minimum cytopathic effect; − = No cytopathic effect; type: cell-based, herpes simplex virus type 2; conditions: conc. per compound (ng/ml)
Text: as §2, §3, §4

Vero cells = test: Cytotoxic effect in Vero cell line; type: cell-based, African green monkey; conditions: African green monkey kidney (Vero) cells
Experimental: as §2, with “Primary human foreskin fibroblast cells (HFF) obtained from Dr. E. R. Kern (Department of Pediatrics, University of Alabama Medical School, 309 Bevill Biomedical Research Building, 845 19th Street South, Birmingham, Ala., 35294-2170), were used for cytopathic effect (CPE) inhibition assay.” left out
(§5) HFF, Vero and HEp-2 cells were seeded in 24-well tissue culture plates at a concentration of […] in DMEM containing 10% FCS and incubated for 24 hours at 37° C. in the presence of 5% CO2. To the monolayer of these cells 0.5, 1.0, 1.5 and 2.0 ml of solution of antiviral compounds were added in the respective wells in duplicate and the cells were then incubated in a 5% CO2 incubator at 37° C. for 72 hours. The cells were observed daily for any change in morphology. […] At the end of this time, the media-drug solution was removed and the cells washed. One ml of 0.25% trypsin was added to each well and incubated until the cells start to come off of the plate. The cells-media mixture was then pipetted up and down several times to resuspend the cells and 0.2 ml of the cell suspension was added to 9.8 ml of trypan blue and cells were counted using hemocytometer. Each sample was counted three times with three replicate wells per sample.

[1] = Cytotoxic effect in Vero cell line; type: cell-based, African green monkey; conditions: African green monkey, Vero cells; Vero cell line
Experimental: as §2, with “Primary human foreskin fibroblast cells (HFF) obtained from Dr. E. R. Kern (Department of Pediatrics, University of Alabama Medical School, 309 Bevill Biomedical Research Building, 845 19th Street South, Birmingham, Ala., 35294-2170), were used for cytopathic effect (CPE) inhibition assay.” left out
as §5

[2] = system: Primary human foreskin fibroblast cells (HFF); test: Cell proliferation assay (cytotoxicity) in HFF cells; type: cell-based; conditions: HFF cells; solution conc. per compound (ng/ml) (Acyclovir 250); 2.0 ml dose
Experimental: as §2, with “Primary human foreskin fibroblast cells (HFF) obtained from Dr. E. R. Kern (Department of Pediatrics, University of Alabama Medical School, 309 Bevill Biomedical Research Building, 845 19th Street South, Birmingham, Ala., 35294-2170), were used for cytopathic effect (CPE) inhibition assay.” left out
as §5

[3] = as above; type: cell-based, human; conditions: primary human foreskin fibroblast (HFF) cells; Human foreskin fibroblast cells; reduces growth of uninfected cells by 50%
Experimental: as §2, with “Primary human foreskin fibroblast cells (HFF) obtained from Dr. E. R. Kern (Department of Pediatrics, University of Alabama Medical School, 309 Bevill Biomedical Research Building, 845 19th Street South, Birmingham, Ala., 35294-2170), were used for cytopathic effect (CPE) inhibition assay.” left out
as §5

HSV-1 strain F = test: CPE inhibition, HSV-1 strain F in HEp-2 cells; also: key: +++ = Complete cytopathic effect; ++ = Moderate cytopathic effect; + = Minimum cytopathic effect; − = No cytopathic effect; type: cell-based, herpes simplex virus type 1; conditions: conc. per compound (ng/ml)
Text: as §2, §3, §4

[4] = Cytotoxic effect in primary rabbit kidney cells; type: cell-based; conditions: primary rabbit kidney cells; Primary Rabbit Kidney cell line
Experimental: as §2, with “Primary human foreskin fibroblast cells (HFF) obtained from Dr. E. R. Kern (Department of Pediatrics, University of Alabama Medical School, 309 Bevill Biomedical Research Building, 845 19th Street South, Birmingham, Ala., 35294-2170), were used for cytopathic effect (CPE) inhibition assay.” left out
as §5

[5] = system: Primary Rabbit Kidney cells; test: Cytotoxic effect in primary rabbit kidney cells; type: cell-based; conditions: primary rabbit kidney cells
Experimental: as §2, with “Primary human foreskin fibroblast cells (HFF) obtained from Dr. E. R. Kern (Department of Pediatrics, University of Alabama Medical School, 309 Bevill Biomedical Research Building, 845 19th Street South, Birmingham, Ala., 35294-2170), were used for cytopathic effect (CPE) inhibition assay.” left out
as §5

[6] = system: Human laryngeal epithelial carcinoma cells (HEp-2); test: Cytotoxicity in HEp-2 cells; type: cell-based
Experimental: as §2, with “Primary human foreskin fibroblast cells (HFF) obtained from Dr. E. R. Kern (Department of Pediatrics, University of Alabama Medical School, 309 Bevill Biomedical Research Building, 845 19th Street South, Birmingham, Ala., 35294-2170), were used for cytopathic effect (CPE) inhibition assay.” left out
as §5

HSV-2 (strain G) = test: Plaque reduction assay, HSV-2 strain G in HEp-2 cells; type: cell-based, herpes simplex virus type 2; conditions: conc. per compound (ng/ml) (Acyclovir 250), HSV-2 virus control 47
Experimental: HEp-2 cells were grown to monolayer in 24 well tissue culture plates in DMEM containing 10% fetal calf serum at 37° C. for 24-36 hours in the presence of 5% CO2. The monolayer of HEp-2 cells was infected with 0.1 ml of HSV- 1 (strain F) or HSV-2 (strain G) containing 100 pfu. The viruses were allowed to adsorb for 1 hour at 37° C. in the presence of 5% CO2. All wells containing virus infected cells except virus control were overlaid with 0.9 ml of DMEM and 1 ml of test compound. The virus control and cell control received DMEM only. All microtiter plates were incubated at 37° C. in the presence of 5% CO2 and observed twice daily for 72 hours for viral CPE. At the end of the experiment, plates were stained with 0.1% crystal violet and the results were quantified by counting plaque forming units.

HSV-1 strain E-377 = test: CPE inhibition assay, HSV-1 E377 in human foreskin fibroblast cells; type: cell-based, herpes simplex virus type 1; as to Qualitative CPE at 2.0 ml dose HSV-1 E377: key: +++ = Complete cytopathic effect; ++ = Moderate cytopathic effect; + = Minimum cytopathic effect; − = No cytopathic effect
Experimental: as §1, §2, §3, §4

[7] = HFF cells, solution conc. per compound (ng/ml) (Acyclovir 250), 2.0 ml dose

For `CC1(C)CCC23CC[C@]4(C)C(CCC5[C@@]6(C)CCC(O)C(C)(C)C6CC[C@]54C)C2C1OC3` (stereo partly drawn) [Allobetulin, 3β-hydroxy-19αH-19,28-epoxy-oleanane], the “EC50 HSV-2 MS” value (HSV-2 strain MS; CPE inhibition in HFF cells) was 0.225 µg/mL (≈ 0.508 µM), the “Qualitative CPE at 2.0 ml dose HSV-2 MS” value (HSV-2 strain MS; [7]) was “++” and the EC50 (HSV-2 strain MS; Human alphaherpesvirus 2, HFF, CPE inhibition in HFF cells, read-out: EC50 HSV-2 MS) was ~0.225 µg/mL (≈ 0.508 µM). For the same molecule, the “Cytopathic Effect (CPE) Inhibition HSV-2 Strain G” value (HSV-2 strain G) was “++”, the “cytotoxicity (in words)” value (Vero cells) was “generally not toxic” and the CC50 at 72 h [1] was 0.3 µg/mL (≈ 0.678 µM). For the same molecule, the “Qualitative Cytotoxic Effect at 2.0 ml dose” value [2] was “−”, the CC50 at 72 h [3] was 0.3 µg/mL (≈ 0.678 µM) and the “Cytopathic Effect (CPE) Inhibition HSV-1 Strain F” value (HSV-1 strain F) was “++”. The CC50 at 72 h [4] was > 0.3 µg/mL, the “cytotoxicity (in words)” value [5] was “No cytotoxicity; also recorded: generally not toxic” and the “cytotoxicity (in words)” value ([6]; HEp-2 (human epithelial) cells) was “less cytotoxicity; also recorded: generally not toxic”. For the same molecule, the “Cell Cytotoxicity” value ([6]; HEp-2 cells, conc. per compound (ng/ml)) was “−”, the “Plaque Reduction Assay Average pfu/10^5 Cells HSV-2 Strain G” value (HSV-2 (strain G)) was 17 pfu/10^5 Cells and the “EC50 HSV-1 E377” value (HSV-1 strain E-377; CPE inhibition in HFF cells) was 0.3 µg/mL (≈ 0.678 µM). For the same molecule, the “Qualitative CPE at 2.0 ml dose HSV-1 E377” value (HSV-1 strain E-377; [7]) was “+++” and the EC50 (HSV-1 strain E-377; Human alphaherpesvirus 1, HFF, CPE inhibition in HFF cells, read-out: EC50 HSV-1 E377) was ~0.3 µg/mL (≈ 0.678 µM).
